From patent US9505753B2, “Inhibitors of D-amino acid oxidase” (THE JOHNS HOPKINS UNIVERSITY, priority 2012, dated 2016)

Each molecule was assayed against human recombinant D-amino acid oxidase (Homo sapiens (Human), UniProt P14920) (assay: In vitro D-amino acid oxidase (DAAO) assay, 96-well plate). Settings: human recombinant DAAO; D-serine 5 mM, FAD 1 μM, 20 min, room temperature, Tris buffer pH 8.5; read-out: Inhibition of DAAO IC50.
Assay type: biochemical
Description: A reliable 96-well plate D-amino acid oxidase (DAAO) assay was developed based on previously published reports (J. Biol. Chem. 277: 27782 (2002)). […] All reactions were carried out for 20 min at room temperature in a 100-μL volume in Tris buffer (50 mM, pH 8.5). Additionally, stock solutions and serial dilutions of potential DAO inhibitors were made in 10:90 DMSO:buffer with a final assay DMSO concentration of 1%.

Sequence of human recombinant D-amino acid oxidase (P14920 whole entry): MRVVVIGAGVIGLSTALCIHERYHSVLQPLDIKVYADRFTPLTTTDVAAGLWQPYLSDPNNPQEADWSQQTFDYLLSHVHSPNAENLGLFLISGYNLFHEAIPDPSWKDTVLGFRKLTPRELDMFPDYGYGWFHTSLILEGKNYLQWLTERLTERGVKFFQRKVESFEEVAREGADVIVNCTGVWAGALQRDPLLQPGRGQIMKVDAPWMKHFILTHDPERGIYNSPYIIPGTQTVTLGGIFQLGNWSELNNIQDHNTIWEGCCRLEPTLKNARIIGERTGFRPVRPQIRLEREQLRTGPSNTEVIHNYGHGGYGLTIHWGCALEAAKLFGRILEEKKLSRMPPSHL

Row | SMILES | IC50
1 | O=c1[nH]c(=O)n(CCc2ccccc2)nc1O [Compound 5a, 6-Hydroxy-2-phenethyl-1,2,4-triazine-3,5(2H,4H)-dione] | 80 nM
2 | O=c1[nH]c(=O)n(Cc2ccc3ccccc3c2)nc1O [Compound 5aa, 6-Hydroxy-2-(naphthalen-2-ylmethyl)-1,2,4-triazine-3,5(2H,4H)-dione] | 30 nM
3 | O=c1[nH]c(=O)n(Cc2ccc3cc(F)ccc3c2)nc1O [Compound 5ab, 2-((6-Fluoronaphthalen-2-yl)methyl)-6-hydroxy-1,2,4-triazine-3,5(2H,4H)-dione] | 100 nM
4 | O=c1[nH]c(=O)n(CCc2cccc(Oc3ccccc3)c2)nc1O [Compound 5ad, 6-Hydroxy-2-(3-phenoxyphenethyl)-1,2,4-triazine-3,5(2H,4H)-dione] | 300 nM
5 | O=c1[nH]c(=O)n(Cc2ccc(Oc3ccccc3F)cc2)nc1O [Compound 5ae, 2-(4-(2-Fluorophenoxyl)benzyl)-6-hydroxy-1,2,4-triazine-3,5(2H,4H)-dione] | 300 nM
6 | O=c1[nH]c(=O)n(Cc2ccc(-c3ccccc3)cc2)nc1O [Compound 5af, 2-(Biphenyl-4-ylmethyl)-6-hydroxy-1,2,4-triazine-3,5(2H,4H)-dione] | 300 nM
7 | O=c1[nH]c(=O)n(CCc2ccc(F)cc2)nc1O [Compound 5b, 2-(4-Fluorophenethyl)-6-hydroxy-1,2,4-triazine-3,5(2H,4H)-dione] | 60 nM
8 | O=c1[nH]c(=O)n(CCc2cccc(F)c2)nc1O [Compound 5c, 2-(3-Fluorophenethyl)-6-hydroxy-1,2,4-triazine-3,5(2H,4H)-dione] | 60 nM
9 | O=c1[nH]c(=O)n(CCc2ccccc2F)nc1O [Compound 5d, 2-(2-Fluorophenethyl)-6-hydroxy-1,2,4-triazine-3,5(2H,4H)-dione] | 80 nM
10 | O=c1[nH]c(=O)n(CCc2ccc(Cl)cc2)nc1O [Compound 5e, 2-(4-Chlorophenethyl)-6-hydroxy-1,2,4-triazine-3,5(2H,4H)-dione] | 30 nM
11 | O=c1[nH]c(=O)n(CCc2cccc(Cl)c2)nc1O [Compound 5f, 2-(3-Chlorophenethyl)-6-hydroxy-1,2,4-triazine-3,5(2H,4H)-dione] | 60 nM
12 | O=c1[nH]c(=O)n(CCc2ccccc2Cl)nc1O [Compound 5g, 2-(2-Chlorophenethyl)-6-hydroxy-1,2,4-triazine-3,5(2H,4H)-dione] | 100 nM
13 | Cc1ccc(CCn2nc(O)c(=O)[nH]c2=O)cc1 [Compound 5h, 6-Hydroxy-2-(4-methylphenethyl)-1,2,4-triazine-3,5(2H,4H)-dione] | 100 nM
14 | Cc1cccc(CCn2nc(O)c(=O)[nH]c2=O)c1 [Compound 5i, 6-Hydroxy-2-(3-methylphenethyl)-1,2,4-triazine-3,5(2H,4H)-dione] | 60 nM
15 | Cc1ccccc1CCn1nc(O)c(=O)[nH]c1=O [Compound 5j, 6-Hydroxy-2-(2-methylphenethyl)-1,2,4-triazine-3,5(2H,4H)-dione] | 60 nM
16 | O=c1[nH]c(=O)n(CCc2ccc(C(F)(F)F)cc2)nc1O [Compound 5k, 6-Hydroxy-2-(4-(trifluoromethyl)phenethyl)-1,2,4-triazine-3,5(2H,4H)-dione] | 80 nM
17 | O=c1[nH]c(=O)n(CCc2cccc(C(F)(F)F)c2)nc1O [Compound 5l, 6-Hydroxy-2-(3-(trifluoromethyl)phenethyl)-1,2,4-triazine-3,5(2H,4H)-dione] | 90 nM

Row | SMILES | IC50
18 | O=c1[nH]c(=O)n(CCc2ccc(Cl)cc2Cl)nc1O [Compound 5m, 2-(2,4-Dichlorophenethyl)-6-hydroxy-1,2,4-triazine-3,5(2H,4H)-dione] | 80 nM
19 | O=c1[nH]c(=O)n(CCc2cccc3ccccc23)nc1O [Compound 5n, 6-Hydroxy-2-(2-(naphthalen-1-yl)ethyl)-1,2,4-triazine-3,5(2H,4H)-dione] | 100 nM
20 | O=c1[nH]c(=O)n(CCc2ccc(-c3ccccc3)cc2)nc1O [Compound 5o, 2-(2-(Biphenyl-4-yl)ethyl)-6-hydroxy-1,2,4-triazine-3,5(2H,4H)-dione] | 30 nM
21 | Cn1nc(O)c(=O)[nH]c1=O [Compound 5p, 6-Hydroxy-2-methyl-1,2,4-triazine-3,5(2H,4H)-dione] | 3000 nM
22 | CC(C)CCn1nc(O)c(=O)[nH]c1=O [Compound 5q, 6-Hydroxy-2-isopentyl-1,2,4-triazine-3,5(2H,4H)-dione] | 300 nM
23 | CC(C)(C)CCn1nc(O)c(=O)[nH]c1=O [Compound 5r, 2-(3,3-Dimethylbutyl)-6-hydroxy-1,2,4-triazine-3,5(2H,4H)-dione] | 40000 nM
24 | O=c1[nH]c(=O)n(CCCc2ccccc2)nc1O [Compound 5s, 6-Hydroxy-2-(3-phenylpropyl)-1,2,4-triazine-3,5(2H,4H)-dione] | 2000 nM
25 | O=c1[nH]c(=O)n(Cc2ccccc2)nc1O [Compound 5t, 2-Benzyl-6-hydroxy-1,2,4-triazine-3,5(2H,4H)-dione] | 9000 nM
26 | O=c1[nH]c(=O)n(Cc2cccc3ccccc23)nc1O [Compound 5u, 6-Hydroxy-2-(naphthalen-1-ylmethyl)-1,2,4-triazine-3,5(2H,4H)-dione] | 50 nM
27 | COc1ccccc1CCn1nc(O)c(=O)[nH]c1=O [Compound 5v, 6-Hydroxy-2-(2-methoxyphenethyl)-1,2,4-triazine-3,5(2H,4H)-dione] | 200 nM
28 | O=c1[nH]c(=O)n(CCc2ccccc2O)nc1O [Compound 5vp, 6-Hydroxy-2-(2-hydroxyphenethyl)-1,2,4-triazine-3,5(2H,4H)-dione] | 60 nM
29 | COc1cccc(CCn2nc(O)c(=O)[nH]c2=O)c1 [Compound 5w, 6-Hydroxy-2-(3-methoxyphenethyl)-1,2,4-triazine-3,5(2H,4H)-dione] | 100 nM
30 | O=c1[nH]c(=O)n(CCc2cccc(O)c2)nc1O [Compound 5wp, 6-Hydroxy-2-(3-hydroxyphenethyl)-1,2,4-triazine-3,5(2H,4H)-dione] | 100 nM
31 | O=c1[nH]c(=O)n(CCc2ccc(O)cc2)nc1O [Compound 5xp, 6-Hydroxy-2-(4-hydroxyphenethyl)-1,2,4-triazine-3,5(2H,4H)-dione] | 100 nM
32 | O=c1[nH]c(=O)n(CCc2ccc(Cl)c(Cl)c2)nc1O [Compound 5y, 2-(3,4-Dichlorophenethyl)-6-hydroxy-1,2,4-triazine-3,5(2H,4H)-dione] | 30 nM
33 | O=c1[nH]c(=O)n(CCc2ccc(F)c(Cl)c2)nc1O [Compound 5z, 2-(3-Chloro-4-fluorophenethyl)-6-hydroxy-1,2,4-triazine-3,5(2H,4H)-dione] | 60 nM
34 | O=c1[nH]c(=O)n(CC(F)(F)c2ccccc2)nc1O [Compound 10a, 2-(2,2-Difluoro-2-phenylethyl)-6-hydroxy-1,2,4-triazine-3,5(2H,4H)-dione] | 400 nM

Results, then the molecule that gave them:

Row | IC50 | SMILES
35 | 40 nM | O=c1[nH]c(=O)n(CCc2ccc(F)c(F)c2)nc1O [Compound 10b, 2-(3,4-Difluorophenethyl)-6-hydroxy-1,2,4-triazine-3,5(2H,4H)-dione]
36 | 100 nM | O=c1[nH]c(=O)n(CCn2cccc2)nc1O [Compound 10c, 2-(2-(1H-pyrrol-1-yl)ethyl)-6-hydroxy-1,2,4-triazine-3,5(2H,4H)-dione]
37 | 300 nM | O=c1[nH]c(=O)n(CCn2cccn2)nc1O [Compound 10d, 2-(2-(1H-pyrazol-1-yl)ethyl)-6-hydroxy-1,2,4-triazine-3,5(2H,4H)-dione]
38 | 100 nM | O=c1[nH]c(=O)n(CCn2ccc3ccccc32)nc1O [Compound 10e, 2-(2-(1H-indol-1-yl)ethyl)-6-hydroxy-1,2,4-triazine-3,5(2H,4H)-dione]
39 | 300 nM | O=c1[nH]c(=O)n(CCn2cnc3ccccc32)nc1O [Compound 10f, 2-(2-(1H-benzo[d]imidazol-1-yl)ethyl)-6-hydroxy-1,2,4-triazine-3,5(2H,4H)-dione]
40 | 300 nM | O=c1[nH]c(=O)n(CCn2ccc3cccnc32)nc1O [Compound 10g, 2-(2-(1H-pyrrolo[2,3-b]pyridin-1-yl)ethyl)-6-hydroxy-1,2,4-triazine-3,5(2H,4H)-dione]
41 | 200 nM | O=c1[nH]c(=O)n(CCn2ncc3ccccc32)nc1O [Compound 10h, 2-(2-(1H-indazol-1-yl)ethyl)-6-hydroxy-1,2,4-triazine-3,5(2H,4H)-dione]
42 | 7000 nM | O=c1[nH]c(=O)n(CCn2c3ccccc3c3ccccc32)nc1O [Compound 10i, 2-(2-(9H-carbazol-9-yl)ethyl)-6-hydroxy-1,2,4-triazine-3,5(2H,4H)-dione]
43 | 1000 nM | O=c1[nH]c(=O)n(CCN2CCOCC2)nc1O [Compound 10j, 6-Hydroxy-2-(2-morpholinoethyl)-1,2,4-triazine-3,5(2H,4H)-dione]
44 | 300 nM | CC(Cc1ccccc1)n1nc(O)c(=O)[nH]c1=O (stereo not shown) [Compound 10k, 6-Hydroxy-2-(1-phenylpropan-2-yl)-1,2,4-triazine-3,5(2H,4H)-dione]
45 | 900 nM | O=c1[nH]c(=O)n(CCc2ccccn2)nc1O [Compound 10l, 6-Hydroxy-2-(2-(pyridin-2-yl)ethyl)-1,2,4-triazine-3,5(2H,4H)-dione]
46 | 400 nM | O=c1[nH]c(=O)n(C[C@@H]2C[C@H]2c2ccccc2)nc1O [Compound 10n, 6-Hydroxy-2-(((1R,2R)-2-phenylcyclopropyl)methyl)-1,2,4-triazine-3,5(2H,4H)-dione]
47 | 200 nM | O=c1[nH]c(=O)n(Cc2cccc3[nH]ccc23)nc1O [Compound 10o, 2-((1H-indol-4-yl)methyl)-6-hydroxy-1,2,4-triazine-3,5(2H,4H)-dione]
48 | 300 nM | O=c1[nH]c(=O)n(Cc2cccc3cnccc23)nc1O [Compound 10p, 6-Hydroxy-2-(isoquinolin-5-ylmethyl)-1,2,4-triazine-3,5(2H,4H)-dione]

Same assay, conditions: read-out: Inhibition of DAAO IC50

Row | IC50 | SMILES
49 | 100 nM | COc1ccc(CCn2nc(O)c(=O)[nH]c2=O)cc1 [Compound 5x, 6-Hydroxy-2-(4-methoxyphenethyl)-1,2,4-triazine-3,5(2H,4H)-dione]
